# Source: patent publication US20230123856A1, “5-FLUORONICOTINAMIDE DERIVATIVES AND USES THEREOF” (Tenaya Therapeutics, Inc., priority 2019, published 2023)
# Biological target: T1, HDAC6 (Homo sapiens, UniProt Q9UBN7)
# T1 sequence (Q9UBN7 1-1215): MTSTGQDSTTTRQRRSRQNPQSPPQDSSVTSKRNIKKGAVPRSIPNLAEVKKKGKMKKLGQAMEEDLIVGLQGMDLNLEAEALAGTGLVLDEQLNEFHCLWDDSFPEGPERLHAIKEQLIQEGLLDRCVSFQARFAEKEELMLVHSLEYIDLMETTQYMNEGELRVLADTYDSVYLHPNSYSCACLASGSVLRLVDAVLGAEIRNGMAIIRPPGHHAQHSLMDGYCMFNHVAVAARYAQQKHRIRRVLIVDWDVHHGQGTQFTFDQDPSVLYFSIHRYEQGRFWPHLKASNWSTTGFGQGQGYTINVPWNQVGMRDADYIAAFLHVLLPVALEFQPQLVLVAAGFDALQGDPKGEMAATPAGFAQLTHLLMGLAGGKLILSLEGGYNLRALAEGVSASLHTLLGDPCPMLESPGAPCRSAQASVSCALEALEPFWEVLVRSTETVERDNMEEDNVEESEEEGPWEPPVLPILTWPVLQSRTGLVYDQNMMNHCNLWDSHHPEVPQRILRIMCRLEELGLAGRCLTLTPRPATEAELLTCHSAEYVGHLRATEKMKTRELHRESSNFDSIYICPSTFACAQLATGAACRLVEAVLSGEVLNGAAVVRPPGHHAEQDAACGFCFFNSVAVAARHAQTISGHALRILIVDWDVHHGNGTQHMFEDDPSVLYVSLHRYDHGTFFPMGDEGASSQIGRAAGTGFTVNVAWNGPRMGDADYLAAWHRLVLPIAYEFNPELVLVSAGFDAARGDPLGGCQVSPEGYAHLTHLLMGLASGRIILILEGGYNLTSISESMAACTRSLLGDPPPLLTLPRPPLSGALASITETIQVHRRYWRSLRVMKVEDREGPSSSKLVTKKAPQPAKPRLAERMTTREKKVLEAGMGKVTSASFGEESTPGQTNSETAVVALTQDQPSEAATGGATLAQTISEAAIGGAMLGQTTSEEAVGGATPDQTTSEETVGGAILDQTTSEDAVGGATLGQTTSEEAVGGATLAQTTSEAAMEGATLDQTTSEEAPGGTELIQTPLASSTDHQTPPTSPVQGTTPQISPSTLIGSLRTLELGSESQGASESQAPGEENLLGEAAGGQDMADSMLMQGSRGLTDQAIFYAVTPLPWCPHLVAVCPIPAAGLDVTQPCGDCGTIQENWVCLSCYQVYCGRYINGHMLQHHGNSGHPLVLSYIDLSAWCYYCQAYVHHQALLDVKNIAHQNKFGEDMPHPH
# Assay: Biochemical luminescent HDAC-Glo I/II assay, HDAC6
# Details: recombinant HDAC6 protein, HDAC-Glo I/II luminescent substrate
row,IC50 [nM],Structure (SMILES)
1,2.18,O=C(NO)c1cnc(NC2(c3ccccn3)CCC2)c(F)c1 [Compound I-37]
2,5.67,CO[C@H]1COC[C@@H]1Nc1ncc(C(=O)NO)cc1F [Compound I-38]
3,1.12,COCC1(Nc2ncc(C(=O)NO)cc2F)CC(F)(F)C1 [Compound I-39]
4,3.36,CCC1(Nc2ncc(C(=O)NO)cc2F)COC1 [Compound I-40]
5,3.97,O=C(NO)c1cnc(NC2(C3CC3)CC2)c(F)c1 [Compound I-41]
6,34.3,CN1CC[C@H](Nc2ncc(C(=O)NO)cc2F)C1=O [Compound I-42A]
7,41.7,CN1CC[C@@H](Nc2ncc(C(=O)NO)cc2F)C1=O [Compound I-42B]
8,51.1,O=C(NO)c1cnc(N[C@H]2CCNC2=O)c(F)c1 [Compound I-43A]
9,25.7,O=C(NO)c1cnc(N[C@@H]2CCNC2=O)c(F)c1 [Compound I-43B]
10,4.71,COCCC1(Nc2ncc(C(=O)NO)cc2F)CC1 [Compound I-44]
11,6.51,"O=C(NO)c1cnc(NC2(c3ncccc3F)CC2)c(F)c1 [Compound I-45, 5-fluoro-6-{[1-(3-fluoropyridin-2-yl)cyclopropyl]amino}-N-hydroxypyridine-3-carboxamide]"
12,29.2,"O=C(NO)c1cnc(NC2(c3ncccn3)CC2)c(F)c1 [Compound I-46, 5-fluoro-N-hydroxy-6-((1-(pyrimidin-2-yl)cyclopropyl)amino)nicotinamide]"
13,4.36,CN1Cc2ccccc2N(Cc2ncc(C(=O)NO)cc2F)C1=O [Compound I-47]
14,2.27,O=C(NO)c1cnc(Cn2c3c(c4ccccc42)S(=O)(=O)CC3)c(F)c1 [Compound I-48]
15,5.11,O=C(NO)c1cnc(Cn2c(C(F)(F)F)nc3ccccc32)c(F)c1 [Compound I-49]
16,2.98,Cc1cc2cccnc2n1Cc1ncc(C(=O)NO)cc1F [Compound I-50]
17,1.94,Cc1c(C)n(Cc2ncc(C(=O)NO)cc2F)c2ncccc12 [Compound I-51]
18,4.29,COC(=O)N(Cc1ncc(C(=O)NO)cc1F)c1ncccc1O [Compound I-52]
19,8.69,Cc1nc2cccnc2n1Cc1ncc(C(=O)NO)cc1F [Compound I-53]
20,80.3,O=C(NO)c1cnc(Cn2c(N3CCOCC3)nc3ccccc32)c(F)c1 [Compound I-54]
21,3.88,"O=C(NO)c1cnc(Cn2ccc3cc(C(=O)NC4CC4)cnc32)c(F)c1 [Compound I-55, N-cyclopropyl-1-((3-fluoro-5-(hydroxycarbamoyl)pyridin-2-yl)methyl)-1H-pyrrolo[2,3-b]pyridine-5-carboxamide]"
22,7.67,O=C(NO)c1cnc(NC2(c3ccccn3)COC2)c(F)c1 [Compound I-56]
23,14.6,"O=C(NO)c1cnc(OC2(c3ccccn3)COC2)c(F)c1 [III-2, 5-fluoro-N-hydroxy-6-{[3-(pyridin-2-yl)oxetan-3-yl]oxy}pyridine-3-carboxamide]"
